{"source": "paper PMC4335062", "about": "“Data-Driven Prediction and Design of bZIP Coiled-Coil Interactions” (PLoS Computational Biology, 2015)", "test_in_all_cases": "Direct-binding FRET assay", "key": {"[1]": {"molecular_target": "T1, ATF2 (Homo sapiens, UniProt P15336)", "T1 construct": "made in house", "T1 sequence (P15336 352-415 limits assumed)": "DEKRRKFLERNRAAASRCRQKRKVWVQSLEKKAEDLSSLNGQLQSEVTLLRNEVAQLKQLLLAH", "conditions": "mean or single, read-out: Kd", "protocol": "(§1) The direct binding assay was performed manually in 384-well plates and is similar to a previously described assay. Wells were filled with 20 μL of 1 mM TCEP-HCl. A 4 μM stock of acceptor protein was made fresh in 1 mM TCEP-HCl, and 20 μL was titrated in 2-fold dilutions over the wells. […] The direct-binding FRET data were fit as previously described. Briefly, the Kd of the designed peptide homodimer was experimentally determined and used with previously determined target homodimer Kd values to determine the heterodimer Kd. The homodimer Kd values used for the human bZIPs were from; experiments done by […] et al. used the same protein constructs for the human bZIP proteins, the same buffer conditions, and the same assay. The fitting used a system of ordinary differential equations to describe the concentrations of homo and heterodimers formed by the donor (D) and acceptor (A) as a function of the heterodimer Kd. MATLAB was used to simulate the binding experiment for different Kd values, and the value that gave the best agreement between simulation and experiment was assigned. A minimum 15% change in the donor fluorescence upon titrating the acceptor peptide from 0 to 1000 nM was required for a fit to be attempted. If this minimum was not met, the interaction was classified as “NS” for no signal change. […] These interactions were marked “AS” to indicate anomalous signal. We attributed this to interactions between the peptides, the dyes and the walls of the assay plates at low concentrations. These curves could not be fit, given their unusual shapes at low concentrations of acceptor. For such curves, we removed the first five points and re-fit the data. […] One example of this is increasing concentrations of acceptor causing an increase in donor fluorescence."}, "[2]": {"molecular_target": "T2, ATF5 (Homo sapiens, UniProt Q9Y2D1)", "T2 construct": "made in house", "T2 sequence (Q9Y2D1 208-271 limits assumed)": "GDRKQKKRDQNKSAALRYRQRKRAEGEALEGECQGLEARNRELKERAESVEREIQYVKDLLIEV", "conditions": "read-out: Kd", "protocol": "as §1"}, "[3]": {"molecular_target": "T3, BATF (Homo sapiens, UniProt Q16520)", "T3 construct": "made in house", "T3 sequence (Q16520 26-89 limits assumed)": "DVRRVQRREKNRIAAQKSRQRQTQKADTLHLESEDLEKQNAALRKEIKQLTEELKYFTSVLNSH", "conditions": "mean or single, read-out: Kd", "protocol": "as §1"}, "[4]": {"molecular_target": "T4, BATF2 (Homo sapiens, UniProt Q8N1L9)", "T4 construct": "made in house", "T4 sequence (Q8N1L9 17-80 limits assumed)": "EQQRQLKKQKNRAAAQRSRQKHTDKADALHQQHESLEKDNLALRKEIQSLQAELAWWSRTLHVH", "conditions": "mean or single, read-out: Kd", "protocol": "as §1"}, "[5]": {"molecular_target": "T5, BATF3 (Homo sapiens, UniProt Q9NR55)", "T5 construct": "made in house", "T5 sequence (Q9NR55 35-98 limits assumed)": "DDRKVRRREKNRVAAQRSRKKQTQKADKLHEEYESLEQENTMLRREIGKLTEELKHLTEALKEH", "conditions": "mean or single, read-out: Kd", "protocol": "as §1"}, "[6]": {"molecular_target": "T6, CREB3L1 (Homo sapiens, UniProt Q96BA8)", "T6 construct": "made in house", "T6 sequence (Q96BA8 290-353 limits assumed)": "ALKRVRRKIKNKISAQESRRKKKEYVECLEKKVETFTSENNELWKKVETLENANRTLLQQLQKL", "conditions": "mean or single, read-out: Kd", "protocol": "as §1"}, "[7]": {"molecular_target": "T7, CREB3L3 (Homo sapiens, UniProt Q68CJ9)", "T7 construct": "made in house", "T7 sequence (Q68CJ9 243-306 limits assumed)": "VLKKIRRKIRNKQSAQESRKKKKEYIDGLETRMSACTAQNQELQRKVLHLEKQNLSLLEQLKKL", "conditions": "mean or single, read-out: Kd", "protocol": "as §1"}, "[8]": {"molecular_target": "T8, CREBZF (Homo sapiens, UniProt Q9NS37)", "T8 construct": "made in house", "T8 sequence (Q9NS37 204-267 limits assumed)": "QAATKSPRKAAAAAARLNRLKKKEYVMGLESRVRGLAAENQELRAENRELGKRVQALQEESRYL", "conditions": "mean or single, read-out: Kd", "protocol": "as §1"}, "[9]": {"molecular_target": "T9, FOSL1 (Homo sapiens, UniProt P15407)", "T9 construct": "made in house", "T9 sequence (P15407 105-168 limits assumed)": "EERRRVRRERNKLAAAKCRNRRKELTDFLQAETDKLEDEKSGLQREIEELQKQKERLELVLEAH", "conditions": "mean or single, read-out: Kd", "protocol": "as §1"}, "[10]": {"molecular_target": "T10, HLF (Homo sapiens, UniProt Q16534)", "T10 construct": "made in house", "T10 sequence (Q16534 225-288 limits assumed)": "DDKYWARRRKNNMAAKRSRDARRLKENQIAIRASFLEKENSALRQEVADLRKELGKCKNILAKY", "conditions": "mean or single, read-out: Kd", "protocol": "as §1"}, "[11]": {"conditions": "4°C, C-terminal rhodamine design"}, "[12]": {"conditions": "23°C, C-terminal rhodamine design"}, "[13]": {"conditions": "23°C, N-terminal rhodamine design"}, "[14]": {"conditions": "37°C, C-terminal rhodamine design"}, "[15]": {"conditions": "37°C, N-terminal rhodamine design"}, "[16]": {"conditions": "4°C, N-terminal rhodamine design"}}, "note": "Like-named read-outs stand apart in the source and are kept apart here. Where no end group is shown, it is not given here.", "data": [{"sequence": "KRIAYLRQRIAELRNENHVLESRIQRMEKEKDALQQDRDHLEYEL [ATF5-d1]", "values": [{"measurement": "Kd", "setting": "[1]; [11]", "value": "> 5000", "unit": "nM"}, {"measurement": "Kd", "setting": "[1]; [12]", "value": "> 5000", "unit": "nM"}, {"measurement": "Kd", "setting": "[1]; [13]", "value": "> 1000", "unit": "nM"}, {"measurement": "Kd", "setting": "[1]; [14]", "value": "> 5000", "unit": "nM"}, {"measurement": "Kd", "setting": "[1]; [15]", "value": "> 1000", "unit": "nM"}, {"measurement": "Kd", "setting": "[2]; 4°C, C-terminal rhodamine design, mean or single", "value": 1.1, "unit": "nM"}, {"measurement": "Kd", "setting": "[2]; 4°C, N-terminal rhodamine design, repeat 3", "value": "200 to 1000", "unit": "nM"}, {"measurement": "Kd", "setting": "[2]; 37°C, C-terminal rhodamine design, mean or single", "value": 1680, "unit": "nM"}, {"measurement": "Kd", "setting": "[2]; 37°C, N-terminal rhodamine design, repeat 1", "value": "> 1000", "unit": "nM"}, {"measurement": "Kd", "setting": "[2]; 37°C, N-terminal rhodamine design, repeat 2", "value": "> 1000", "unit": "nM"}, {"measurement": "Kd", "setting": "[2]; 37°C, N-terminal rhodamine design, repeat 3", "value": "> 5000", "unit": "nM"}, {"measurement": "Kd", "setting": "[3]; [11]", "value": "> 5000", "unit": "nM"}, {"measurement": "Kd", "setting": "[3]; [16]", "value": 136, "unit": "nM"}, {"measurement": "Kd", "setting": "[3]; [12]", "value": "> 5000", "unit": "nM"}, {"measurement": "Kd", "setting": "[3]; [13]", "value": 382, "unit": "nM"}, {"measurement": "Kd", "setting": "[3]; [14]", "value": "> 5000", "unit": "nM"}, {"measurement": "Kd", "setting": "[3]; [15]", "value": "> 5000", "unit": "nM"}, {"measurement": "Kd", "setting": "[4]; [11]", "value": 591, "unit": "nM"}, {"measurement": "Kd", "setting": "[4]; [16]", "value": 76, "unit": "nM"}, {"measurement": "Kd", "setting": "[4]; [12]", "value": "> 5000", "unit": "nM"}, {"measurement": "Kd", "setting": "[4]; [13]", "value": 509, "unit": "nM"}, {"measurement": "Kd", "setting": "[4]; [14]", "value": "> 1000", "unit": "nM"}, {"measurement": "Kd", "setting": "[4]; [15]", "value": "> 5000", "unit": "nM"}, {"measurement": "Kd", "setting": "[5]; [11]", "value": 192, "unit": "nM"}, {"measurement": "Kd", "setting": "[5]; [16]", "value": 52.8, "unit": "nM"}, {"measurement": "Kd", "setting": "[5]; [12]", "value": 791, "unit": "nM"}, {"measurement": "Kd", "setting": "[5]; [13]", "value": 315, "unit": "nM"}, {"measurement": "Kd", "setting": "[5]; [14]", "value": "> 5000", "unit": "nM"}, {"measurement": "Kd", "setting": "[5]; [15]", "value": "> 5000", "unit": "nM"}, {"measurement": "Kd", "setting": "[6]; [11]", "value": 158, "unit": "nM"}, {"measurement": "Kd", "setting": "[6]; [16]", "value": "> 5000", "unit": "nM"}, {"measurement": "Kd", "setting": "[6]; [12]", "value": 529, "unit": "nM"}, {"measurement": "Kd", "setting": "[6]; [13]", "value": "> 5000", "unit": "nM"}, {"measurement": "Kd", "setting": "[6]; [15]", "value": "> 1000", "unit": "nM"}, {"measurement": "Kd", "setting": "[7]; [11]", "value": 230, "unit": "nM"}, {"measurement": "Kd", "setting": "[7]; [16]", "value": "> 5000", "unit": "nM"}, {"measurement": "Kd", "setting": "[7]; [12]", "value": 414, "unit": "nM"}, {"measurement": "Kd", "setting": "[7]; [13]", "value": "> 5000", "unit": "nM"}, {"measurement": "Kd", "setting": "[7]; [14]", "value": 657, "unit": "nM"}, {"measurement": "Kd", "setting": "[7]; [15]", "value": "> 1000", "unit": "nM"}, {"measurement": "Kd", "setting": "[8]; [11]", "value": 409, "unit": "nM"}, {"measurement": "Kd", "setting": "[8]; [16]", "value": 375, "unit": "nM"}, {"measurement": "Kd", "setting": "[8]; [12]", "value": "> 5000", "unit": "nM"}, {"measurement": "Kd", "setting": "[8]; [13]", "value": "> 5000", "unit": "nM"}, {"measurement": "Kd", "setting": "[8]; [14]", "value": "> 1000", "unit": "nM"}, {"measurement": "Kd", "setting": "[9]; [11]", "value": 84.1, "unit": "nM"}, {"measurement": "Kd", "setting": "[9]; [16]", "value": 271, "unit": "nM"}, {"measurement": "Kd", "setting": "[9]; [12]", "value": 695, "unit": "nM"}, {"measurement": "Kd", "setting": "[9]; [13]", "value": "> 5000", "unit": "nM"}, {"measurement": "Kd", "setting": "[9]; [14]", "value": "> 1000", "unit": "nM"}, {"measurement": "Kd", "setting": "[10]; [11]", "value": "> 5000", "unit": "nM"}, {"measurement": "Kd", "setting": "[10]; [16]", "value": "> 5000", "unit": "nM"}, {"measurement": "Kd", "setting": "[10]; [12]", "value": "> 5000", "unit": "nM"}, {"measurement": "Kd", "setting": "[10]; [13]", "value": "> 1000", "unit": "nM"}, {"measurement": "Kd", "setting": "[10]; [14]", "value": "> 5000", "unit": "nM"}, {"measurement": "Kd", "setting": "[10]; [15]", "value": "> 1000", "unit": "nM"}]}]}
